For one assay, the target named is GSK3β(h) (Homo sapiens, UniProt P49841). The assay can be described thus: GSK3β radiometric kinase assay (33P-ATP, phospho GS2 peptide). It is filed as biochemical. The conditions noted are these: read-out: IC50 GSK3β (enzyme assay). An outline of the steps:
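Human GSK3β in 8 mM MOPS pH 7,0, 0,2 mM EDTA, 10 mM Mg-acetate with 20 μM phospho-GS2 peptide; the reaction was started with [γ-33P]MgATP at an unstated level. After 40 min at room temperature it was stopped with phosphoric acid, and the peptide was captured on P30 filtermat for scintillation counting.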

The target in assay [1] is T1, GCN2 (Homo sapiens, UniProt Q9P2K8). The assay can be described thus: Cellular assay of GCN2 activity (phospho-eIF2alpha immunocytochemistry after tryptophanol). Type of assay: cell-based. On the set-up: endogenous in cells; host or cells: U2OS. The settings on record: Human U2OS cells, 2 h compound, 600 μM tryptophanol 30 min. An outline of the steps: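 Readout in human U2OS cells: compound pretreatment 2 h, then tryptophanol (600 μM final) for 30 min to trigger GCN2 signalling. Fixed, permeabilised cells quantified by immunocytochemistry for phosphorylation, normalised to DMSO controls as % effect; IC50 from concentration-response.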
Target sequence in this assay (Q9P2K8 whole entry): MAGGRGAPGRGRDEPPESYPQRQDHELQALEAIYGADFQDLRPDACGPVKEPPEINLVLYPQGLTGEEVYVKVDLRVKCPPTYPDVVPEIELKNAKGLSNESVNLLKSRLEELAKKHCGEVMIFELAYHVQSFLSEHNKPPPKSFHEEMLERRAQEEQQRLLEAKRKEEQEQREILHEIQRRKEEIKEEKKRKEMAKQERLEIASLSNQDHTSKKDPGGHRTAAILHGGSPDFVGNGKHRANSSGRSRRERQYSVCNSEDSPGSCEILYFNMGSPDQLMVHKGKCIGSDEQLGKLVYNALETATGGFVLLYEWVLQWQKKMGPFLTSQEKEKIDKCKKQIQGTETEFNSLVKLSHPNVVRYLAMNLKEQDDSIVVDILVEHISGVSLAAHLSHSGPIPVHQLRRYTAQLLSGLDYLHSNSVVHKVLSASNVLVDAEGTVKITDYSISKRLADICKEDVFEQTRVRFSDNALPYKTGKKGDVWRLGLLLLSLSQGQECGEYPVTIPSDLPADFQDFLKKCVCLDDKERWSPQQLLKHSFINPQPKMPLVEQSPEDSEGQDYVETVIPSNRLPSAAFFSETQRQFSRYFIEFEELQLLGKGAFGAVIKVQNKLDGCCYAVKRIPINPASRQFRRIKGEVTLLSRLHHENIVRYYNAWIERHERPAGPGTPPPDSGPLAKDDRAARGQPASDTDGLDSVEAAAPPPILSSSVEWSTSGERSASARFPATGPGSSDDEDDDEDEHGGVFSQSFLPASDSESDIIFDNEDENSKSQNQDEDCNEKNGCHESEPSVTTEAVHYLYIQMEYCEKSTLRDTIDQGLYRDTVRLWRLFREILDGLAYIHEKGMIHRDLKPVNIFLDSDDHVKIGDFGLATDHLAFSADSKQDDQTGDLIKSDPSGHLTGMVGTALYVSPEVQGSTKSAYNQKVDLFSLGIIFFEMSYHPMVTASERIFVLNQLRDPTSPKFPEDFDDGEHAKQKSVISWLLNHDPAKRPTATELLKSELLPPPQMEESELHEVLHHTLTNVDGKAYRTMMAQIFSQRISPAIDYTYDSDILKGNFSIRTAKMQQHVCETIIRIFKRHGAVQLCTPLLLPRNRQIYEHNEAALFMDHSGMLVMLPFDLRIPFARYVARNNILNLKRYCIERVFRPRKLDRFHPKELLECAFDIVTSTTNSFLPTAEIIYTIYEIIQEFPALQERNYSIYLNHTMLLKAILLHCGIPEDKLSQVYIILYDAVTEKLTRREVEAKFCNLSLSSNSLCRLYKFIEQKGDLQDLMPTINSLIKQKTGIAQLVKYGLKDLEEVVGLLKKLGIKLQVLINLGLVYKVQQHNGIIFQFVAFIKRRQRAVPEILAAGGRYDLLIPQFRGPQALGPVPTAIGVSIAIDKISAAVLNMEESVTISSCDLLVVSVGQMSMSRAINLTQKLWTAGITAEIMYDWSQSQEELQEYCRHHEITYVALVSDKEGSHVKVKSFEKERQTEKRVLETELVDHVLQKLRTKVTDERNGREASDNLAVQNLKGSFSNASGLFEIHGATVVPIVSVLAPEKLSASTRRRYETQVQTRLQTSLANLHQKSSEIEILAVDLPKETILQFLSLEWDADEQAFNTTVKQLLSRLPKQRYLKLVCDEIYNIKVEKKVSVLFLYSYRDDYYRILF

The target of assay [2] is T1, GCN2. The assay can be described thus: GCN2 enzyme assay (TR-FRET Lanthascreen, GFP-eIF2alpha phosphorylation). Type of assay: biochemical. The settings on record: 10 μM ATP, 80 nM GFP-eIF2a, 30 nM GCN2. An outline of the steps: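 Phosphorylation of GFP-eIF2alpha (80 nM) by GCN2 run at room temperature with 10 μM ATP. After EDTA quench, product quantified by Lanthascreen TR-FRET (antibody–GFP complex, 340 nm excitation).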
Target sequence in this assay (Q9P2K8 whole entry, species assumed): as the sequence (Q9P2K8 whole entry) above
In general terms: TR-FRET usually uses a lanthanide donor and a delayed reading to cut background.

The next assay has as its target GSK3α(h) (Homo sapiens, UniProt P49840). The assay can be described thus: GSK3α radiometric kinase assay (33P-ATP, phospho GS2 peptide). The settings on record: read-out: IC50 GSK3α (enzyme assay). It is filed as biochemical. An outline of the steps:
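Human GSK3α incubated with 20 μM phospho-GS2 peptide in 8 mM MOPS pH 7,0, 10 mM Mg-acetate and [γ-33P]ATP (concentration as required), started with MgATP. After 40 minutes at room temperature, stopped with phosphoric acid; 33P incorporation measured by filtermat spotting and scintillation counting.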

Chain of GSK3α(h) (P49840 whole entry): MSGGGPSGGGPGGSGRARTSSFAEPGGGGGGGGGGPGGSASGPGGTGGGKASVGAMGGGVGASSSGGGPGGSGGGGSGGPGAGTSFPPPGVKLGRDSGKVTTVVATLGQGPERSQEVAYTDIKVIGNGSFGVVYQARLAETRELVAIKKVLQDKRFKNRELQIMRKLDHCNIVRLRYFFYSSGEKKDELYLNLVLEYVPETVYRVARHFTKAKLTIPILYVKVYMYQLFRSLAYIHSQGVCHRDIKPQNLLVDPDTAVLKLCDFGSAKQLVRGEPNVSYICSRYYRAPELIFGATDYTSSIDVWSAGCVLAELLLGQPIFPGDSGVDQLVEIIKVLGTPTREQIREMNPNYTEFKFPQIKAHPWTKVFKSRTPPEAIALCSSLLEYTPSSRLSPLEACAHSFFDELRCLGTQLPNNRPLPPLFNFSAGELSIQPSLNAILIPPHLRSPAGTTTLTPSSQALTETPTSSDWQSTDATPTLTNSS
Chain of GSK3β(h) (P49841 whole entry): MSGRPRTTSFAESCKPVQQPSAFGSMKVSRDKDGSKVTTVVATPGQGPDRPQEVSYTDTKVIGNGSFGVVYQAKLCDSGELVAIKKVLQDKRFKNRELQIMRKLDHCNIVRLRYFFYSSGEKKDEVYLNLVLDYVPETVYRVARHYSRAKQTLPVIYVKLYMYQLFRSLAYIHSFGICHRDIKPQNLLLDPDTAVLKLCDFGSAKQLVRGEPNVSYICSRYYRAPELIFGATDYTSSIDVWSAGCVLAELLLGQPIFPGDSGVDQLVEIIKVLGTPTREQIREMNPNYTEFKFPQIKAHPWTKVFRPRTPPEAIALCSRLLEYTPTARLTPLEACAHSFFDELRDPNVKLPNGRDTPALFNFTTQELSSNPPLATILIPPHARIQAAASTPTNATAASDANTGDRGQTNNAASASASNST

`CCOc1ccc(-n2nnc3cnc(N[C@@H]4CC[C@@H](C(=O)NCCC(C)(C)O)C4)nc32)cc1` [A240, (1R,3R)-3-[3-(4-ethoxy-phenyl)-3H-[1,2,3]triazolo[4,5-d]pyrimidin-5-ylamino]-cyclopentanecarboxylic acid (3-hydroxy-3-methyl-butyl)-amide]: the IC50 at GSK3β(h) was < 1000 nM; against GCN2 [1], 5000 to 10000 nM; on GCN2 [2], < 1000 nM; on GSK3α(h), < 1000 nM.
Turning to `COc1ccc(-n2nnc3cnc(N[C@@H]4CC[C@@H](C(=O)NCCN5CCN(C)CC5)C4)nc32)cc1` [A244, (1R,3R)-3-[3-(4-methoxy-phenyl)-3H-[1,2,3]triazolo[4,5-d]pyrimidin-5-ylamino]-cyclopentanecarboxylic acid [2-(4-methyl-piperazin-1-yl)-ethyl]-amide], the IC50 at GSK3β(h), against GCN2 [1], against GCN2 [2] and on GSK3α(h) was < 1000 nM in each case.
Consider `Cc1ccc2cc(-n3nnc4cnc(N[C@@H]5CC[C@@H](C(=O)NCCO)C5)nc43)ccc2n1` [A245, (1R,3R)-3-[3-(2-methyl-quinolin-6-yl)-3H-[1,2,3]triazolo[4,5-d]pyrimidin-5-ylamino]-cyclopentanecarboxylic acid (2-hydroxy-ethyl)-amide], for which the IC50 at GSK3β(h), against GCN2 [1], on GCN2 [2] and at GSK3α(h) was < 1000 nM throughout.
As for `COCCNC(=O)[C@@H]1CC[C@@H](Nc2ncc3nnn(-c4ccc5nc(C)ccc5c4)c3n2)C1` [A246, (1R,3R)-3-[3-(2-methyl-quinolin-6-yl)-3H-[1,2,3]triazolo[4,5-d]pyrimidin-5-ylamino]-cyclopentanecarboxylic acid (2-methoxy-ethyl)-amide], the IC50 was < 1000 nM at GSK3β(h), 1000 to 5000 nM against GCN2 [1], < 1000 nM against GCN2 [2] and < 1000 nM on GSK3α(h).
As to `CCOc1ccc(-n2nnc3cnc(N[C@@H]4CC[C@@H](C(=O)NCCO)C4)nc32)cc1` [A247, (1R,3R)-3-[3-(4-ethoxy-phenyl)-3H-[1,2,3]triazolo[4,5-d]pyrimidin-5-ylamino]-cyclopentanecarboxylic acid (2-hydroxy-ethyl)-amide], the IC50 on GSK3β(h), on GCN2 [1], on GCN2 [2] and on GSK3α(h) was < 1000 nM in each case.
As to `CCOc1ccc(-n2nnc3cnc(N[C@@H]4CC[C@@H](C(=O)NCCOC)C4)nc32)cc1` [A248, (1R,3R)-3-[3-(4-ethoxy-phenyl)-3H-[1,2,3]triazolo[4,5-d]pyrimidin-5-ylamino]-cyclopentanecarboxylic acid (2-methoxy-ethyl)-amide], the IC50 on GSK3β(h) was < 1000 nM; against GCN2 [1], 1000 to 5000 nM; at GCN2 [2], < 1000 nM; at GSK3α(h) it was < 1000 nM.
For the molecule `CCOc1ccc(-n2nnc3cnc(N[C@@H]4CC[C@@H](C(=O)NCC5CCN(C)CC5)C4)nc32)cc1` [A249, (1R,3R)-3-[3-(4-ethoxy-phenyl)-3H-[1,2,3]triazolo[4,5-d]pyrimidin-5-ylamino]-cycloentanecarboxyic acid (1-methyl-piperidin-4-ylmethyl)-amide], the IC50 at GSK3β(h) was < 1000 nM; at GCN2 [1], 1000 to 5000 nM; against GCN2 [2], < 1000 nM; at GSK3α(h), < 1000 nM.
In the case of `Cc1ccc2cc(-n3nnc4cnc(N[C@@H]5CC[C@@H](C(=O)NCCN6CCN(C)CC6)C5)nc43)ccc2n1` [A250, (1R,3R)-3-[3-(2-methyl-quinolin-6-yl)-3H-[1,2,3]triazolo[4,5-d]pyrimidin-5-ylamino]-cyclopentanecarboxylic acid [2-(4-methyl-piperazin-1-yl)-ethyl]-amide], the IC50 at GSK3β(h) is < 1000 nM; at GCN2 [1], 1000 to 5000 nM; on GCN2 [2], < 1000 nM; on GSK3α(h), < 1000 nM.
Take `Cc1ccc2cc(-n3nnc4cnc(N[C@@H]5CC[C@@H](C(=O)NCC6CCN(C)CC6)C5)nc43)ccc2n1` [A252, (1R,3R)-3-[3-(2-methyl-quinolin-6-yl)-3H-[1,2,3]triazolo[4,5-d]pyrimidin-5-ylamino]-cyclopentanecarboxylic acid (1-methyl-piperidin-4-ylmethyl)-amide]: the IC50 at GSK3β(h) is < 1000 nM; against GCN2 [1], 1000 to 5000 nM; on GCN2 [2], < 1000 nM; at GSK3α(h) it was < 1000 nM.
For `OCCn1cc(-c2ccc(-n3nnc4cnc(N[C@@H]5CC[C@@H](O)C5)nc43)cc2)cn1` [A259, (1R,3R)-3-(3-{4-[1-(2-hydroxy-ethyl)-1H-pyrazol-4-yl]-phenyl}-3H-[1,2,3]triazolo[4,5-d]pyrimidin-5-ylamino)-cyclopentanol], the IC50 is < 1000 nM on GSK3β(h), 1000 to 5000 nM on GCN2 [1], < 1000 nM on GCN2 [2] and < 1000 nM on GSK3α(h).
For `NC(=O)[C@@H]1CC[C@@H](Nc2ncc3nnn(-c4ccc(-c5cnn(CCO)c5)c(F)c4)c3n2)C1` [A260, (1R,3R)-3-(3-{3-fluoro-4-[1-(2-hydroxy-ethyl)-1H-pyrazol-4-yl]-phenyl}-3H-[1,2,3]triazolo[4,5-d]pyrimidin-5-ylamino)-cyclopentanecarboxylic acid amide], the IC50 is < 1000 nM on GSK3β(h), 5000 to 10000 nM on GCN2 [1], < 1000 nM against GCN2 [2] and < 1000 nM on GSK3α(h).
For the molecule `COc1ccc(-n2nnc3cnc(N[C@@H]4C=C[C@@H](C(N)=O)C4)nc32)cc1` [A273, (1S,4S)-4-[3-(4-Methoxy-phenyl)-3H-[1,2,3]triazolo[4,5-d]pyrimidin-5-ylamino]-cyclopent-2-enecarboxylic acid amide], the IC50 at GSK3β(h) is < 1000 nM; on GCN2 [1] it was 5000 to 10000 nM; at GCN2 [2], < 1000 nM; on GSK3α(h), < 1000 nM.
On to `COCCOc1ccc(-n2nnc3cnc(N[C@@H]4CC[C@@H](C#N)C4)nc32)cc1` [A274, (1R,3R)-3-{3-[4-(2-methoxy-ethoxy)-phenyl]-3H-[1,2,3]triazolo[4,5-d]pyrimidin-5-ylamino}-cyclopentanecarbonitrile], for which the IC50 was < 1000 nM on GSK3β(h), 1000 to 5000 nM at GCN2 [1], < 1000 nM on GCN2 [2] and < 1000 nM at GSK3α(h).
Turning to `NC(=O)[C@@H]1CC[C@@H](Nc2ncc3nnn(-c4ccc(OCCN5CCOCC5)cc4)c3n2)C1` [A277, (1R,3R)-3-{3-[4-(2-morpholin-4-yl-ethoxy)-phenyl]-3H-[1,2,3]triazolo[4,5-d]pyrimidin-5-ylamino}-cyclopentanecarboxylic acid amide], the IC50 at GSK3β(h) is < 1000 nM; against GCN2 [1] it was 5000 to 10000 nM; on GCN2 [2], < 1000 nM; at GSK3α(h), < 1000 nM.
In the case of `CC(C)(CCO)Oc1ccc(-n2nnc3cnc(N[C@@H]4CC[C@@H](C(N)=O)C4)nc32)cc1` [A278, (1R,3R)-3-{3-[4-(3-hydroxy-1,1-dimethyl-propoxy)-phenyl]-3H-[1,2,3]triazolo[4,5-d]pyrimidin-5-ylamino}-cyclopentanecarboxylic acid amide], the IC50 was < 1000 nM at GSK3β(h), 1000 to 5000 nM against GCN2 [1], < 1000 nM at GCN2 [2] and < 1000 nM on GSK3α(h).
Regarding `CCOc1ccc(-n2nnc3cnc(N[C@@H]4CC[C@@H](C(=O)NNC(C)=O)C4)nc32)cc1` [A280, (1R,3R)-3-[3-(4-ethoxy-phenyl)-3H-[1,2,3]triazolo[4,5-d]pyrimidin-5-ylamino]-cyclopentanecarboxylic acid N′-acetyl-hydrazide], the IC50 on GSK3β(h) is < 1000 nM; at GCN2 [1], 1000 to 5000 nM; at GCN2 [2] it was < 1000 nM; at GSK3α(h), < 1000 nM.
`CCOc1ccc(-n2nnc3cnc(N[C@@H]4CC[C@@H](C(=O)NN)C4)nc32)cc1` [A282, (1R,3R)-3-[3-(4-ethoxy-phenyl)-3H-[1,2,3]triazolo[4,5-d]pyrimidin-5-ylamino]-cyclopentanecarboxylic acid hydrazide]: the IC50 was < 1000 nM on GSK3β(h), 1000 to 5000 nM against GCN2 [1], < 1000 nM at GCN2 [2] and < 1000 nM on GSK3α(h).

A word on the IC50: it is the concentration that gives 50% inhibition.

The record behind these values is patent publication US9855268B2, “Triazolo[4,5-d]pyrimidine derivatives” (Merck Patent GmbH, priority 2013, dated 2018).
